Assay [1] relates to Neotyphodium uncinatum, var.UNC1. The assay can be described thus: Effect of benomyl on growth, comparison of varieties. The assay is classed as cell-based. The settings on record: comparison of the two varieties. As for the experimental part:
(§1) Plates of PDA containing different concentrations of the fungicide benomyl were prepared as outlined by Christensen et al. (1991). Benlate(Methyl[1-[(butylamino)carbonyl]-1H-benzimidazol-2-yl]carbamate) (50% WP) was added to PDA prior to sterilization. Concentrations of benomyl were adjusted to 1, 5, 10, 50 and 100 ppm. Five duplicate plates were inoculated with a colony plug.
The two varieties were similar in tested characteristics of colony sporulation, colony sectoring, colony color (upper surface), colony shape, colony immersion or margin in agar, colony texture, aerial mycelium density and type, and effect of benomyl on growth. The two varieties differed in […] and rate of growth.

Assay [2] concerns Neotyphodium uncinatum, var. U2. As to the kind of experiment: Colony: resistance to benomyl on growth (PDA plates with benomyl). In kind it is cell-based. The settings on record: benomyl 1, 5, 10, 50 and 100 ppm in PDA, recorded after 4 weeks; scale absent or very weak / weak / medium / strong / very strong. Here is the method: Neotyphodium uncinatum, var. U2 was isolated from line FP102 of Festuca pratensis (Meadow fescue). Line FP102 originally came from Norway in 1999. Characteristics for Neotyphodium uncinatum, var. U2 were determined and compared with other varieties. For these tests, the endophytic fungus isolated was cultured on 1.5% (w/v) potato dextrose agar at 20° C. in the dark (Christensen M J, Latch G C M, Tapper S A 1991: Variation within isolates of Acremonium endophytes from perennial ryegrasses. Mycol. Res. 95: 918-923). Length of cultivation was generally standardized at 4 weeks, but may be varied according to the isolate. Five plates of each strain were grown.
as §1

On to `CCCCNC(=O)n1c(NC(=O)OC)nc2ccccc21` [benomyl, Methyl[1-[(butylamino)carbonyl]-1H-benzimidazol-2-yl]carbamate], for which the “effect of benomyl on growth, var.UNC1 compared with var. U2” value in assay [1] was “similar”. Moreover, the “Colony: resistance to benomyl on growth” value in assay [2] is listed as “strong”.

(Values after patent US9133434B1, “Grass endophyte” (Cropmark Seeds Ltd., priority 2012, dated 2015).)
